For assay [1], the target named is anti-T4 antibody Fab fragment. As to the kind of experiment: Native MS initial ligand screening (approximate affinities, stoichiometry). It counts as binding, mouse. The following applies: 0.1 μM Fab; for approximate binding affinity: initial ligand screening. The procedure:
(§1) All mass spectrometric experiments were performed by using a 12-T Bruker solariX XR Fourier transform ion cyclotron resonance (FT-ICR) instrument (Bruker Daltonics, Bremen, Germany) equipped with an electrospray ionization (ESI) source (Apollo-II). Mass spectra were obtained in a positive ion mode, and the samples were directly infused to the ion source at a flow rate of 2 μL min^–1. Dry nitrogen was used as nebulizing (4.0 L min^–1) and drying (80 °C, 1.0 bar) gas. The ions were accumulated in the hexapole ion trap for 3.5 s and then transferred to the dynamically harmonized ICR cell (Paracell) for trapping, excitation, and detection. The time of flight was set to 3.5 ms. All other instrumental parameters were carefully adjusted to preserve noncovalent interactions in the gas phase. […] The mass spectra were externally calibrated by the ESI Tuning mix (part no. G2431A; Agilent Technologies, Santa Clara, CA). The mass spectra were acquired from m/z 1500 to 5000. The data acquisition was attained by ftmsControl 2.1 software and further processed and analyzed by DataAnalysis 4.2 SR1 software. All native MS experiments were performed in 20 mM aqueous ammonium acetate (pH 6.9) solution.
First, the approximate binding affinities of thyroid hormones and tetrahalogen bisphenols to anti-T4 Fab were determined via initial screening experiments (Figures S1–S7).

For assay [2], the target named is anti-T4 antibody Fab fragment. As to the kind of experiment: Native MS (ESI FT-ICR) ligand competition with T2 as low-affinity reference ligand. Particulars: for binding affinity (in words): native MS. Type of assay: binding, mouse. On the procedure:
as §1, with “All native MS experiments were performed in 20 mM aqueous ammonium acetate (pH 6.9) solution.” left out
To determine the binding affinities for the other ligands, ligand competition experiments were performed.[25],[26] Briefly, T2 was used as the “low-affinity” reference ligand, whose accurate Kd value was determined earlier by the direct ligand titration. The two ligands, competing for the same binding site in anti-T4 Fab, were mixed at the appropriate concentrations (determined earlier by initial screening experiments) with the protein at a fixed concentration of 0.1 μM. Ten replicates were measured for each ligand pair from three different samples.
A mathematical model to calculate Kd values from the competition experiments was as follows: For L and Lref, competing for a single binding site in P, the two equilibrium reactions are [drawing 2] [drawing 3] where P is the receptor protein, L is the ligand, and Lref is the “low-affinity” reference ligand. Briefly, the intensity ratio (R) of the total abundance of the ligand-bound protein (PL) and free protein (P) was calculated for each spectrum. The affinity measurement for the “low-affinity” ligand (Lref) was performed by a direct titration method. The individual Kd values for L and Lref are derived as [drawing 4] 2 [drawing 5] 3 where the brackets represent equilibrium concentrations of L, Lref, P, PL, and PLref. The mass balance equations at equilibrium are [drawing 6] 4 [drawing 7] 5 [drawing 8] 6 where [P]total, [L]total, and [Lref]total are the total protein, ligand, and reference ligand concentrations, respectively.
At equilibrium, [P] is the same for both ligands, and thus, eqs. […] were simplified to [drawing 9] 7
The ESI-MS spectrum directly provides normalized intensities (“concentration coefficients”) i(P), i(PL), and i(PLref), such that their sum equals 1, which can then be used to calculate equilibrium concentrations by eqs 8, 9, and 10: [drawing 10] 8 [drawing 11] 9 [drawing 12] 10 These calculations are valid if one assumes that the ionization and ion transmission efficiencies for P, PL, and PLref are the same (they are if mL ≈ mLref ≪ mP, which is true in this case), and there is no complex dissociation upon ionization/desolvation stages (i.e., careful adjustments of instrumental parameters). The intensities should be calculated as integrated sums of different charge states to avoid any bias resulting from different CSDs between the free and bound proteins. The free ligand concentrations, [L] and [Lref], can be obtained from eqs 5 and 6. The equilibrium concentrations [L], [Lref], [PL], and [PLref] as well as the predetermined/known Kd(Lref) can be inserted into eq 7 to calculate Kd(L).

For assay [3], the target named is anti-T4 antibody Fab fragment. As to the kind of experiment: Native MS (ESI FT-ICR) direct ligand titration. The following applies: 0.005-2.0 μM T2, 0.1 μM Fab. It counts as binding, mouse. The procedure:
All mass spectrometric experiments were performed by using a 12-T Bruker solariX XR Fourier transform ion cyclotron resonance (FT-ICR) instrument (Bruker Daltonics, Bremen, Germany) equipped with an electrospray ionization (ESI) source (Apollo-II). Mass spectra were obtained in a positive ion mode, and the samples were directly infused to the ion source at a flow rate of 2 μL min^–1. Dry nitrogen was used as nebulizing (4.0 L min^–1) and drying (80 °C, 1.0 bar) gas. The ions were accumulated in the hexapole ion trap for 3.5 s and then transferred to the dynamically harmonized ICR cell (Paracell) for trapping, excitation, and detection. The time of flight was set to 3.5 ms. […] The data acquisition was attained by ftmsControl 2.1 software and further processed and analyzed by DataAnalysis 4.2 SR1 software. […]
A direct ligand titration[9],[22],[23] was used to determine the binding constant for the “low-affinity” reference ligand. […] The fractional saturation (Y) of the protein was calculated from the intensity ratio of the protein–ligand complex (PL) and free protein (P) for every single ligand (L) concentration (intensities averaged over different charge states), and the data were fitted into the specific, single-site binding model[24] […] Five replicate samples were prepared and measured for each T2 concentration. […]

For assay [4], the system named is anti-T4 Fab. Set-up: method as in PMID 9095353, PMID 9460543. Particulars: SPR, cited from earlier work. On the technique in general: In SPR one partner is held on a chip, and binding of the other changes the refractive index at the surface.
Assay [5] has as its target THRα1. Also on record: method as in PMID 15466465. The following applies: cited from earlier work.
The mark [6] stands for this setting: 0.1 μM Fab, 20 mM ammonium acetate pH 6.8, ligand and reference ligand (T2) concentrations per Table 1, mean ± SD, 10 replicates of three samples, read-out: Kd.
[7] abbreviates: T4/T2 0.14/0.5 μM, T3/T2 0.14/0.5 μM, T0/T2 15/0.05 μM, 0.1 μM Fab, read-out: Kd (self-validation at second ligand concentrations).

We go through six compounds from paper PMC6854577, “Quantitation of Thyroid Hormone Binding to Anti-Thyroxine Antibody Fab Fragment by Native Mass Spectrometry” (ACS Omega, 2019).

SMILES strings stand for the structures. pKd: −log10 of the molar value. Values joined by “and” are separate entries in the source; they are usually repeats but may differ in a detail not shown here. Equal entries are not always repeated.

Take `N[C@@H](Cc1ccc(Oc2ccc(O)cc2)cc1)C(=O)O` [T0, L-thyronine]: the approximate binding affinity result in assay [1] is given as “submicromolar to micromolar affinity range”. The pKd is 3.89 in assay [2] (setting [6]); 3.76 in assay [2] (setting [7]); 3.89 in assay [2] (competition with T2 as reference ligand, as given in the abstract, read-out: Kd). Besides, the “binding affinity relative to T3” value in assay [2] (anti-T4 Fab, native MS Kd values compared) was “approximately five orders of magnitude lower”.

Turning to `N[C@@H](Cc1ccc(Oc2ccc(O)c(I)c2)c(I)c1)C(=O)O` [T2, 3,3′-diiodo-L-thyronine], the approximate binding affinity entry in assay [1] was “submicrometer range”. The pKd in assay [3] (20 mM ammonium acetate pH 6.8) was 6.59; in assay [3] (20 mM ammonium acetate pH 6.8, one-site binding fit, five replicates), 6.58 and 6.59. In addition, the binding result in assay [4] (within the Kd range accessible by the technique) is “did not show any binding”.

As to `N[C@@H](Cc1cc(I)c(Oc2cc(I)c(O)c(I)c2)c(I)c1)C(=O)O` [T4, L-thyroxine], the approximate binding affinity result in assay [1] is reported as “low nanomolar binding affinities”. Further, the pKd was 8.70 in assay [5], 7.54 in assay [2] (setting [6]) and 7.62 in assay [2] (setting [7]). The “affinity relative to T3” value in assay [4] is reported as “approximately 10 times”.

As to `CC(C)(c1cc(Br)c(O)c(Br)c1)c1cc(Br)c(O)c(Br)c1` [TBB, tetrabromobisphenol-A], the approximate binding affinity entry in assay [1] is “submicromolar to micromolar affinity range”. The pKd in assay [2] (setting [6]) was 7.06. Further, the “binding affinity (in words)” value in assay [2] (anti-T4 Fab) is listed as “nanomolar binding affinities”.

Take `CC(C)(c1cc(Cl)c(O)c(Cl)c1)c1cc(Cl)c(O)c(Cl)c1` [TCB, tetrachlorobisphenol-A]: the ligand saturation entry in assay [1] (ligand added until saturation) was “saturative binding was not observed even at a molar ligand excess of 200”. Moreover, the approximate binding affinity result in assay [1] was “submicromolar to micromolar affinity range”. The pKd in assay [2] (setting [6]) was 5.11.

Regarding `CC(C)(c1cc(I)c(O)c(I)c1)c1cc(I)c(O)c(I)c1` [TIB, tetraiodobisphenol-A], the approximate binding affinity entry in assay [1] is on record as “submicromolar to micromolar affinity range”. Also, the pKd in assay [2] (setting [6]) is 7.96. In addition, the “binding affinity (in words)” value in assay [2] (anti-T4 Fab) is recorded as “nanomolar binding affinities”.
